Test results reported in patent US12660819B2, “Herbicidal derivatives” (SYNGENTA CROP PROTECTION AG, priority 2020, dated 2026).

Assays:
Assay type in all cases: in vivo
[1] = system: Amaranthus retoflexus (AMARE); assay: Pre-emergence Test (glasshouse, percentage damage to the plant); settings: 1000 g/ha unless otherwise stated, five-point scale
[2] = system: Echinochloa crus-galli (ECHCG); assay: as above; settings: 1000 g/ha unless otherwise stated, five-point scale
[3] = system: Ipomoea hederacea (IPOHE); assay: as above; settings: 1000 g/ha unless otherwise stated, five-point scale
[4] = system: Abutilon theophrasti (ABUTH); assay: as above; settings: 1000 g/ha unless otherwise stated, five-point scale
[5] = system: Setaria faberi (SETFA); assay: as above; settings: 1000 g/ha unless otherwise stated, five-point scale
[6] = system: Zea mays (ZEAMX); assay: as above; settings: 1000 g/ha unless otherwise stated, five-point scale
[7] = system: Echinochloa crus-galli (ECHCG); assay: Post-emergence Test (glasshouse, percentage damage to the plant); settings: post-emergence spray, 1000 g/ha unless otherwise stated, evaluated after 13 days
How it was run: (§1)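 Seeds are sown in standard soil under controlled glasshouse conditions. The pots are then sprayed at 1000 g/ha, unless otherwise stated, with compound in acetone/water (50:50) containing 0.5% Tween 20. After 13 days further growth, percentage plant damage is scored from 1 (0-20%) to 5 (81-100%).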

[8] = system: Amaranthus retoflexus (AMARE); assay: as above; settings: post-emergence spray, 1000 g/ha unless otherwise stated, evaluated after 13 days
How it was run: as §1

[9] = system: Zea mays (ZEAMX); assay: as above; settings: post-emergence spray, 1000 g/ha unless otherwise stated, evaluated after 13 days
How it was run: (§2)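 Compound formulated in 50:50 acetone/water with 0.5% Tween 20 was diluted to an aqueous spray and applied at 1000 g/ha, unless otherwise stated, onto sown pots. Evaluation after 13 days gave percentage damage, banded into a 1–5 score.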

[10] = system: Abutilon theophrasti (ABUTH); assay: as above; settings: post-emergence spray, 1000 g/ha unless otherwise stated, evaluated after 13 days
How it was run: as §1

[11] = system: Setaria faberi (SETFA); assay: as above; settings: post-emergence spray, 1000 g/ha unless otherwise stated, evaluated after 13 days
How it was run: as §2

[12] = system: Ipomoea hederacea (IPOHE); assay: as above; settings: post-emergence spray, 1000 g/ha unless otherwise stated, evaluated after 13 days
How it was run: as §2

SMILES	percentage damage to the plant, AMARE [1]	percentage damage to the plant, ECHCG [2]	percentage damage to the plant, IPOHE [3]	percentage damage to the plant, ABUTH [4]	percentage damage to the plant, SETFA [5]	percentage damage to the plant, ZEAMX [6]	Post-emergence Test ECHCG, percentage damage to the plant (five-point scale) [7]	Post-emergence Test AMARE, percentage damage to the plant (five-point scale) [8]	Post-emergence Test ZEAMX, percentage damage to the plant (five-point scale) [9]	Post-emergence Test ABUTH, percentage damage to the plant (five-point scale) [10]	Post-emergence Test SETFA, percentage damage to the plant (five-point scale) [11]	Post-emergence Test IPOHE, percentage damage to the plant (five-point scale) [12]
CCn1c(C)c(-c2cc(Cl)c(OC)c(OC)c2)c(=O)c(C(=O)O)c1-c1ccc(Cl)c(Cl)c1 [Compound 87, 5-(3-chloro-4,5-dimethoxy-phenyl)-2-(3,4-dichlorophenyl)-1-ethyl-6-methyl-4-oxo-pyridine-3-carboxylic acid]	1 (1=0-20%)	1 (1=0-20%)	1 (1=0-20%)	1 (1=0-20%)	4 (4=61-80%)	1 (1=0-20%)	2 (2=21-40%)	2 (2=21-40%)	1 (1=0-20%)	3 (3=41-60%)	3 (3=41-60%)	2 (2=21-40%)
CCn1c(C)c(-c2ccc(Cl)s2)c(=O)c(C(=O)O)c1-c1ccc(Cl)cc1 [Compound 166, 2-(4-chlorophenyl)-5-(5-chloro-2-thienyl)-1-ethyl-6-methyl-4-oxo-pyridine-3-carboxylic acid]	1 (1=0-20%)	0	1 (1=0-20%)	1 (1=0-20%)	0	0	2 (2=21-40%)	2 (2=21-40%)	1 (1=0-20%)	3 (3=41-60%)	3 (3=41-60%)	1 (1=0-20%)
CCn1c(C)c(-c2cc(F)cc(OCC(F)(F)F)c2)c(=O)c(C(=O)O)c1-c1ccc(Cl)c(Cl)c1 [Compound 94, 2-(3,4-dichlorophenyl)-1-ethyl-5-[3-fluoro-5-(2,2,2-trifluoroethoxy)phenyl]-6-methyl-4-oxo-pyridine-3-carboxylic acid]	1 (1=0-20%)	1 (1=0-20%)	1 (1=0-20%)	1 (1=0-20%)	1 (1=0-20%)	1 (1=0-20%)	1 (1=0-20%)	1 (1=0-20%)	1 (1=0-20%)	1 (1=0-20%)	1 (1=0-20%)	1 (1=0-20%)
CCn1c(C)c(-c2cccs2)c(=O)c(C(=O)O)c1-c1ccc(Cl)c(Cl)c1 [Compound 74, 2-(3,4-dichlorophenyl)-1-ethyl-6-methyl-4-oxo-5-(2-thienyl)pyridine-3-carboxylic acid]	1 (1=0-20%)	3 (3=41-60%)	1 (1=0-20%)	2 (2=21-40%)	4 (4=61-80%)	1 (1=0-20%)	3 (3=41-60%)	1 (1=0-20%)	2 (2=21-40%)	3 (3=41-60%)	3 (3=41-60%)	2 (2=21-40%)
CCc1ccc(-c2c(C)n(CC)c(-c3ccc(Cl)c(Cl)c3)c(C(=O)O)c2=O)cc1 [Compound 89, 2-(3,4-dichlorophenyl)-1-ethyl-5-(4-ethylphenyl)-6-methyl-4-oxo-pyridine-3-carboxylic acid]	1 (1=0-20%)	1 (1=0-20%)	1 (1=0-20%)	1 (1=0-20%)	4 (4=61-80%)	1 (1=0-20%)	1 (1=0-20%)	1 (1=0-20%)	1 (1=0-20%)	3 (3=41-60%)	1 (1=0-20%)	3 (3=41-60%)
CCn1c(C)c(-c2ccc(Cl)cc2)c(=O)c(C(=O)O)c1-c1ccc(Br)c(F)c1 [Compound 129, 2-(4-bromo-3-fluoro-phenyl)-5-(4-chlorophenyl)-1-ethyl-6-methyl-4-oxo-pyridine-3-carboxylic acid]	5 (5=81-100%)	2 (2=21-40%)	2 (2=21-40%)	2 (2=21-40%)	5 (5=81-100%)	1 (1=0-20%)	2 (2=21-40%)	3 (3=41-60%)	2 (2=21-40%)	3 (3=41-60%)	3 (3=41-60%)	3 (3=41-60%)
CCn1c(C)c(-c2ccc(OC)c(Cl)c2)c(=O)c(C(=O)O)c1-c1ccc(Cl)c(Cl)c1 [Compound 101, 5-(3-chloro-4-methoxy-phenyl)-2-(3,4-dichlorophenyl)-1-ethyl-6-methyl-4-oxo-pyridine-3-carboxylic acid]	2 (2=21-40%)	2 (2=21-40%)	1 (1=0-20%)	2 (2=21-40%)	4 (4=61-80%)	2 (2=21-40%)	3 (3=41-60%)	3 (3=41-60%)	2 (2=21-40%)	3 (3=41-60%)	3 (3=41-60%)	2 (2=21-40%)
CCn1c(C)c(-c2ccc(OC(F)(F)F)cc2)c(=O)c(C(=O)O)c1-c1ccc(Cl)c(Cl)c1 [Compound 95, 2-(3,4-dichlorophenyl)-1-ethyl-6-methyl-4-oxo-5-[4-(trifluoromethoxy)phenyl]pyridine-3-carboxylic acid]	1 (1=0-20%)	2 (2=21-40%)	1 (1=0-20%)	1 (1=0-20%)	4 (4=61-80%)	1 (1=0-20%)	3 (3=41-60%)	3 (3=41-60%)	2 (2=21-40%)	3 (3=41-60%)	3 (3=41-60%)	2 (2=21-40%)
CCn1c(C)c(-c2ccc(C#N)cc2)c(=O)c(C(=O)O)c1-c1ccc(Cl)c(Cl)n1 [Compound 146, 5-(4-cyanophenyl)-2-(5,6-dichloro-2-pyridyl)-1-ethyl-6-methyl-4-oxo-oyridine-3-carboxylic acid]	1 (1=0-20%)	4 (4=61-80%)	0	1 (1=0-20%)	4 (4=61-80%)	1 (1=0-20%)	4 (4=61-80%)	2 (2=21-40%)	3 (3=41-60%)	3 (3=41-60%)	4 (4=61-80%)	4 (4=61-80%)
